Experiment [1] relates to Plasmopara viticola. Briefly: Activity against Plasmopara viticola on grape (cv Gutedel) leaf discs (Example B-2). Conditions: solo compound.
Excerpt: The action to be expected E for a given active ingredient combination obeys the so-called COLBY formula and can be calculated as follows (COLBY, S. R. “Calculating synergistic and antagonistic responses of herbicide combination”. Weeds, Vol. 15, pages 20-22; 1967):
According to COLBY, the expected (additive) action of active ingredients A)+B) using p+q ppm of active ingredient is [formula]
If the action actually observed (O) is greater than the expected action (E), then the action of the combination is super-additive, i.e. there is a synergistic effect. In mathematical terms the synergism factor SF corresponds to O/E. In the agricultural practice an SF of ≧1.2 indicates significant improvement over the purely complementary addition of activities (expected activity), while an SF of ≦0.9 in the practical application routine signals a loss of activity compared to the expected activity.
The efficacy of the mixtures against Plasmopara viticola may be determined in micro scale on grape leaf discs in 24-well plates (repeated on 4 discs per variation). […] The inoculation is done by spraying the sporangial suspension (70 000 sp/ml) on the lower leaf side. The infected (sporulating) area of each leaf disc is measured 7-8 days after incubation (under standard conditions in a climatic chamber +18° C., 12 hours day/night cycle) as a %-value of the total leaf disc area. The activity is calculated as a %-value relative to the disease rate on fully infected, untreated grape leave discs. The expected fungicide interactions of the components in the mixtures (E-values) are calculated according to the method of Colby.
The test system of experiment [2] is Phytophthora infestans. In kind it is in vivo. The note with it: solo compound.

Read-outs that look alike come from different tables or passages of the source.

Regarding `COCC(=O)N(c1c(C)cccc1C)[C@H](C)C(=O)OC` [IIa, metalaxyl-M], the results for the “observed activity (O in %)” value in experiment [1] (0.025 ppm), in experiment [1] (0.05 ppm) and in experiment [1] (0.1 ppm) were 3%, 5% and 9%, respectively.
Regarding `CCNC(=O)NC(=O)C(C#N)=NOC` [XI, cymoxanil], the “observed activity (O in %)” value is on record as 0% in experiment [1] (0.01 ppm) and 8% in experiment [1] (0.025 ppm).
Consider `N#Cc1c(Cl)c(Cl)c(Cl)c(C#N)c1Cl` [V, chlorothalonil], for which the “observed activity (O in %)” value in experiment [2] (0.5 ppm) turned out to be 0%.
For the molecule `CO/C=C(/C(=O)OC)c1ccccc1Oc1cc(Oc2ccccc2C#N)ncn1` [VIa, azoxystrobin], the “observed activity (O in %)” value in experiment [1] (0.01 ppm) came out at 0%.
As to mancozeb [IV], the “observed activity (O in %)” value is on record as 3% in experiment [1] (0.25 ppm) and 15% in experiment [1] (0.5 ppm).
On to `COc1ccc(C(=CC(=O)N2CCOCC2)c2ccc(Cl)cc2)cc1OC` [IX, dimethomorph], for which the figures for the “observed activity (O in %)” value in experiment [1] (0.01 ppm), in experiment [1] (0.05 ppm) and in experiment [1] (1 ppm) were 0%, 14% and 62%, respectively.
In the case of `O=[N+]([O-])c1cc(C(F)(F)F)c(Cl)c([N+](=O)[O-])c1Nc1ncc(C(F)(F)F)cc1Cl` [III, fluazinam], the results for the “observed activity (O in %)” value in experiment [2] (0.025 ppm), in experiment [2] (0.05 ppm) and in experiment [2] (0.5 ppm) were 0%, 0% and 29%, respectively.

The values are drawn from patent US20030189958A1 (priority 2000, published 2003).
